The assay deals with T1, JMJD2C (Homo sapiens, UniProt Q9H3R0).
T1 sequence (Q9H3R0 2-372): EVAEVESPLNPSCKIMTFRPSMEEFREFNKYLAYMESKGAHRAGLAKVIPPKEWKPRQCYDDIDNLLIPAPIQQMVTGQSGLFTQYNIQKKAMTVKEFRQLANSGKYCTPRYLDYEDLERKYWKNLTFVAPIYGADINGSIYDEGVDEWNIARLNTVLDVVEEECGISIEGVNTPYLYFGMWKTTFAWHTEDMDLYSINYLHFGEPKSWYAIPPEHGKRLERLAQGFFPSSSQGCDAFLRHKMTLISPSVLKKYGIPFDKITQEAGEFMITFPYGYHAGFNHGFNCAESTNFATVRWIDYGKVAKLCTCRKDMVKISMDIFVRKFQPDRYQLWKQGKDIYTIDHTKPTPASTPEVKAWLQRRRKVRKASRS
Briefly: JMJD2C in vitro enzyme inhibition assay (TR-FRET). To be noted: 0.3 nM JMJD2C, 300 nM H3K9me3-biotin peptide, 2 μM alpha-ketoglutaric acid. It is filed as biochemical. How it is done:
This assay determines the ability of a test compound to inhibit Jarid1A, Jarid1B, and JMJD2C demethylase activity.
Reaction product was determined quantitatively by TR-FRET after the addition of detection reagent Phycolink Streptavidin-allophycocyanin (Prozyme) and Europium-anti-di-methylated histone H3 lysine 9 (H3K9me2) antibody (PerkinElmer) in the presence of 5 mM EDTA in LANCE detection buffer (PerkinElmer) at a final concentration of 50 nM and 1 nM, respectively.
The assay reaction was initiated by the following: 2 μl of the mixture of 900 nM H3K9me3-biotin labeled peptide and 6 μM alpha-ketoglutaric acid with 2 μl of 11-point serial diluted inhibitor in 3% DMSO were added to each well of the plate, followed by the addition of 2 μl of 0.9 nM JMJD2C to initiate the reaction. The reaction mixture was incubated at room temperature for 30 minutes, and terminated by the addition of 6 μl of 5 mM EDTA in LANCE detection buffer containing 100 nM Phycolink Streptavidin-allophycocyanin and 2 nM Europium-anti-H3K9me2 antibody.
In turn, `Cn1nc(Nc2cnccc2C(=O)O)c2cc(Cl)ccc21` [Example 4] displayed an IC50 of 100 to 1000 nM.
The figure for `Cc1ccc2c(Nc3cnccc3C(=O)O)nn(C)c2c1` [Example 5, 3-[(1,6-dimethyl-1H-indazol-3-yl)amino]pyridine-4-carboxylic acid] is 100 to 1000 nM.
The figure for `COc1ccc2c(Nc3cnccc3C(=O)O)nn(C)c2c1` [Example 8, 3-[(6-methoxy-1-methyl-1H-indazol-3-yl)amino]pyridine-4-carboxylic acid] is 100 to 1000 nM; for `CCCn1nc(Nc2cnccc2C(=O)O)c2ccccc21` [Example 9, 3-[(1-propyl-1H-indazol-3-yl)amino]pyridine-4-carboxylic acid] it is 100 to 1000 nM.
The figure for `COCCn1nc(Nc2cnccc2C(=O)O)c2ccccc21` [Example 10, 3-{[1-(2-methoxyethyl)-1H-indazol-3-yl]amino}pyridine-4-carboxylic acid] is 100 to 1000 nM; for `CCCn1nc(Nc2cnccc2C(=O)O)c2cc(F)ccc21` [Example 15, 3-[(5-fluoro-1-propyl-1H-indazol-3-yl)amino]pyridine-4-carboxylic acid] it is 100 to 1000 nM.
For `O=C(O)c1ccncc1Nc1nn(CC2CC2)c2ccc(F)cc12` [Example 16, 3-{[1-(cyclopropylmethyl)-5-fluoro-1H-indazol-3-yl]amino}pyridine-4-carboxylic acid], the IC50 fell in the range of 100 to 1000 nM.
In turn, `CCCCCn1nc(Nc2cnccc2C(=O)O)c2cc(F)ccc21` [Example 18, 3-[(5-fluoro-1-pentyl-1H-indazol-3-yl)amino]pyridine-4-carboxylic acid] showed a concentration for half-maximal inhibition (IC50) of 100 to 1000 nM.
`O=C(O)c1ccncc1Nc1nn(CCc2ccccc2)c2ccc(F)cc12` [Example 19, 3-{[5-fluoro-1-(2-phenethyl)-1H-indazol-3-yl]amino}pyridine-4-carboxylic acid] had an IC50 of 100 to 1000 nM.
The result for `O=C(O)c1ccncc1Nc1nn(CC2CCCO2)c2ccc(F)cc12` (stereo not shown) [Example 21, 3-{[5-fluoro-1-(tetrahydrofuran-2-ylmethyl)-1H-indazol-3-yl]amino}pyridine-4-carboxylic acid] reads 100 to 1000 nM.
The result for `O=C(O)c1ccncc1Nc1nn(CC(F)(F)F)c2ccc(F)cc12` [Example 23, 3-{[5-fluoro-1-(2,2,2-trifluoroethyl)-1H-indazol-3-yl]amino}pyridine-4-carboxylic acid] reads 100 to 1000 nM; that for `CC(C)Cn1nc(Nc2cnccc2C(=O)O)c2cc(F)ccc21` [Example 25, 3-{[5-fluoro-1-(2-methylpropyl)-1H-indazol-3-yl]amino}pyridine-4-carboxylic acid], 100 to 1000 nM.
The figure for `CCC(C)n1nc(Nc2cnccc2C(=O)O)c2cc(F)ccc21` (stereo not shown) [Example 26, 3-{[5-fluoro-1-(butan-2-yl)-1H-indazol-3-yl]amino}pyridine-4-carboxylic acid] is 100 to 1000 nM.
`O=C(O)c1ccncc1Nc1nn(CC2CCC2)c2ccc(F)cc12` [Example 28, 3-{[1-(cyclobutylmethyl)-5-fluoro-1H-indazol-3-yl]amino}pyridine-4-carboxylic acid] had a concentration for half-maximal inhibition (IC50) of 100 to 1000 nM.
`O=C(O)c1ccncc1Nc1nn(C2CCCC2)c2ccc(F)cc12` [Example 29, 3-[(1-cyclopentyl-5-fluoro-1H-indazol-3-yl)amino]pyridine-4-carboxylic acid] came in with a concentration for half-maximal inhibition (IC50) of 100 to 1000 nM.
The result for `O=C(O)c1ccncc1Nc1nn(CC2CCCC2)c2ccc(F)cc12` [Example 30, 3-{[1-(cyclopentylmethyl)-5-fluoro-1H-indazol-3-yl]amino}pyridine-4-carboxylic acid] reads 100 to 1000 nM.
In turn, `O=C(O)c1ccncc1Nc1nn(CCC2CC2)c2ccc(F)cc12` [Example 31, 3-{[1-(cyclopropylethyl)-5-fluoro-1H-indazol-3-yl]amino}pyridine-4-carboxylic acid] displayed an IC50 of 100 to 1000 nM.
The figure for `O=C(O)c1ccncc1Nc1nn(CCC(F)(F)F)c2ccc(F)cc12` [Example 32, 3-{[5-fluoro-1-(3,3,3-trifluoropropyl)-1H-indazol-3-yl]amino}pyridine-4-carboxylic acid] is 100 to 1000 nM.
The figure for `CCCn1nc(Nc2cnccc2C(=O)O)c2cc(Cl)ccc21` [Example 33, 3-[(5-chloro-1-propyl-1H-indazol-3-yl)amino]pyridine-4-carboxylic acid] is 100 to 1000 nM.
The result for `O=C(O)c1ccncc1Nc1nn(CC2CC2)c2ccc(Cl)cc12` [Example 34, 3-{[5-chloro-1-(cyclopropylmethyl)-1H-indazol-3-yl]amino}pyridine-4-carboxylic acid] reads 100 to 1000 nM.
Regarding `O=C(O)c1ccncc1Nc1nn(CCC(F)(F)F)c2ccc(Cl)cc12` [Example 35, 3-{[5-chloro-1-(3,3,3-trifluoropropyl)-1H-indazol-3-yl]amino}pyridine-4-carboxylic acid], the concentration for half-maximal inhibition (IC50) fell in the range of 100 to 1000 nM.
The figure for `CCn1nc(Nc2cnccc2C(=O)O)c2cc(C)ccc21` [Example 36, 3-[(1-ethyl-5-methyl-1H-indazol-3-yl)amino]pyridine-4-carboxylic acid] is 100 to 1000 nM.
The result for `Cc1ccc2c(c1)c(Nc1cnccc1C(=O)O)nn2CC1CC1` [Example 37, 3-{[1-(cyclopropylmethyl)-5-methyl-1H-indazol-3-yl]amino}pyridine-4-carboxylic acid] reads 100 to 1000 nM; that for `CCCn1nc(Nc2cnccc2C(=O)O)c2cc(C)ccc21` [Example 38, 3-[(5-methyl-1-propyl-1H-indazol-3-yl)amino]pyridine-4-carboxylic acid], 100 to 1000 nM.
As for `Cc1ccc2c(c1)c(Nc1cnccc1C(=O)O)nn2CCC(F)(F)F` [Example 39, 3-{[5-methyl-1-(3,3,3-trifluoropropyl)-1H-indazol-3-yl]amino}pyridine-4-carboxylic acid], the IC50 lay in the range of 100 to 1000 nM.
`Cn1cc(Nc2cnccc2C(=O)O)c2cccnc21` [Example 52, 3-[(1-methyl-1H-pyrrolo[2,3-b]pyridine-3-yl)amino]pyridine-4-carboxylic acid] displayed an IC50 of 100 to 1000 nM.
In turn, `CCCn1cc(Nc2cnccc2C(=O)O)c2cc(F)ccc21` [Example 57, 3-[(5-fluoro-1-propyl-1H-indol-3-yl)amino]pyridine-4-carboxylic acid] registered a half-inhibitory concentration (IC50) of 100 to 1000 nM.
The result for `O=C(O)c1ccncc1Nc1cn(CCC(F)(F)F)c2ccc(Cl)cc12` [Example 59, 3-{[5-chloro-1-(3,3,3-trifluoropropyl)-1H-indol-3-yl]amino}pyridine-4-carboxylic acid] reads 100 to 1000 nM; that for `O=C(O)c1ccncc1Nc1nn(C2CCOCC2)c2ccc(F)cc12` [Example 62, 3-{[5-fluoro-1-(tetrahydro-2H-pyran-4-yl)-1H-indazol-3-yl]amino}pyridine-4-carboxylic acid], 100 to 1000 nM.
The result for `O=C(O)c1ccncc1Nc1nn(C2CCCOC2)c2ccc(F)cc12` (stereo not shown) [Example 63, 3-{[5-fluoro-1-(tetrahydro-2H-pyran-3-yl)-1H-indazol-3-yl]amino}pyridine-4-carboxylic acid] reads 100 to 1000 nM; that for `O=C(O)c1ccncc1Nc1cn(C2CCOC2)c2ccc(F)cc12` (stereo not shown) [Example 68, 3-{[5-fluoro-1-(tetrahydrofuran-3-yl)-1H-indol-3-yl]amino}pyridine-4-carboxylic acid], 100 to 1000 nM; that for `O=C(O)c1ccncc1Nc1nn(C2CCOC2)c2ccc(Cl)cc12` (stereo not shown) [Example 69, 3-{[5-chloro-1-(tetrahydrofuran-3-yl)-1H-indazol-3-yl]amino}pyridine-4-carboxylic acid], 100 to 1000 nM.
The result for `N#CNC(=O)c1ccncc1Nc1nn([C@H]2CCOC2)c2ccc(F)cc12` [Example 70, N-cyano-3-({5-fluoro-1-[(3S)-tetrahydrofuran-3-yl]-1H-indazol-3-yl}amino)pyridine-4-carboxamide] reads 1000 to 10000 nM; that for `N#CNC(=O)c1ccncc1Nc1nn(CCN2CCC(F)(F)C2)c2ccc(F)cc12` [Example 72, N-cyano-3-({1-[2-(3,3-difluoropyrrolidin-1 yl)ethyl]-5-fluoro-1H-indazol-3-yl}amino)pyridine-4-carboxamide], 1000 to 10000 nM; that for `N#CNC(=O)c1ccncc1Nc1nn(CCN2CCC(F)(F)CC2)c2ccc(F)cc12` [Example 74, N-cyano-3-({1-[2-(4,4-difluoropiperidin-1 yl)ethyl]-5-fluoro-1H-indazol-3-yl}amino)pyridine-4-carboxamide], 1000 to 10000 nM.
On to `CC(C)Cn1nc(Nc2cnccc2C(=O)NC#N)c2cc(F)ccc21` [Example 75, N-cyano-3-{[5-fluoro-1-(2-methylpropyl)-1H-indazol-3-yl]amino}pyridine-4-carboxamide], for which the concentration for half-maximal inhibition (IC50) fell in the range of 1000 to 10000 nM.
With `CN(C)CCCCn1nc(Nc2cnccc2C(=O)NC#N)c2cc(F)ccc21` [Example 76, N-cyano-3-({1-[4-(dimethylamino)butyl]-5-fluoro-1H-indazol-3-yl}amino)pyridine-4-carboxamide], the 50% inhibitory concentration (IC50) was 100 to 1000 nM.

For the origin of these results see US8969343B2, “Histone demethylase inhibitors” (priority 2012, dated 2015).
